Source: PMC3792221 (Biomolecules & Therapeutics, 2012)

Assays:
[1] = target: T1, MAO-A (rat brain mitochondrial MAO) (Rattus norvegicus, UniProt P21396); assay: MAO-A inhibition assay in vitro; assay type: biochemical
T1 sequence (P21396 1-526): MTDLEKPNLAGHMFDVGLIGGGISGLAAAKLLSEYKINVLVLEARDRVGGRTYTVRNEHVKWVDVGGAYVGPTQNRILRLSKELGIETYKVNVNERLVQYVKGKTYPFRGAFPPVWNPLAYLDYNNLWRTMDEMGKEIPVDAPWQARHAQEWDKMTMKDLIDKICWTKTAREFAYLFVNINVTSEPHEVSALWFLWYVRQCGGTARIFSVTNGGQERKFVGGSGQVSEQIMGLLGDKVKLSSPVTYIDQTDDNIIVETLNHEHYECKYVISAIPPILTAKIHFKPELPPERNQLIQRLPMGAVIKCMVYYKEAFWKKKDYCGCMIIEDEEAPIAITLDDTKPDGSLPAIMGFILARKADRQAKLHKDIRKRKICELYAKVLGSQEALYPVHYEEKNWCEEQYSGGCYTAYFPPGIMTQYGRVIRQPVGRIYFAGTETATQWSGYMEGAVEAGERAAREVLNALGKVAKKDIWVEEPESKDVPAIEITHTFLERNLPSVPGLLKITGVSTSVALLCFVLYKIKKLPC

[2] = target: T2, MAO-B (rat liver mitochondrial MAO) (Rattus norvegicus, UniProt P19643); assay: MAO-B inhibition assay in vitro; assay type: biochemical
T2 sequence (P19643 1-520): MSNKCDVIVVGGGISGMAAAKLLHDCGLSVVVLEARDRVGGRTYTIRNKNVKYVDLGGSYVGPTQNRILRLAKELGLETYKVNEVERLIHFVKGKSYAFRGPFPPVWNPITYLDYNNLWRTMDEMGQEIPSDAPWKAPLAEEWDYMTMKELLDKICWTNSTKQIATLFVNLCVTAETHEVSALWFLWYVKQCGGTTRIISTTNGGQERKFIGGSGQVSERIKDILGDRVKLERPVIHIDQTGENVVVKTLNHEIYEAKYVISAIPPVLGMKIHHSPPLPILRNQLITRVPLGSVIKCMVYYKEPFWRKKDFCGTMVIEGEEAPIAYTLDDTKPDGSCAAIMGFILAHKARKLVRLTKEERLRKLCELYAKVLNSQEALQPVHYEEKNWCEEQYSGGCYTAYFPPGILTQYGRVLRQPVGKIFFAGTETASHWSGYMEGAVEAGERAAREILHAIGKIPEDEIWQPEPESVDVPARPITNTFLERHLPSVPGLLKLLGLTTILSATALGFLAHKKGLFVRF

bovine adrenal DBH = target: T3, bovine adrenal DBH (Bos taurus, UniProt P15101); assay: DBH inhibition assay in vitro; assay type: biochemical
T3 sequence (P15101 1-610): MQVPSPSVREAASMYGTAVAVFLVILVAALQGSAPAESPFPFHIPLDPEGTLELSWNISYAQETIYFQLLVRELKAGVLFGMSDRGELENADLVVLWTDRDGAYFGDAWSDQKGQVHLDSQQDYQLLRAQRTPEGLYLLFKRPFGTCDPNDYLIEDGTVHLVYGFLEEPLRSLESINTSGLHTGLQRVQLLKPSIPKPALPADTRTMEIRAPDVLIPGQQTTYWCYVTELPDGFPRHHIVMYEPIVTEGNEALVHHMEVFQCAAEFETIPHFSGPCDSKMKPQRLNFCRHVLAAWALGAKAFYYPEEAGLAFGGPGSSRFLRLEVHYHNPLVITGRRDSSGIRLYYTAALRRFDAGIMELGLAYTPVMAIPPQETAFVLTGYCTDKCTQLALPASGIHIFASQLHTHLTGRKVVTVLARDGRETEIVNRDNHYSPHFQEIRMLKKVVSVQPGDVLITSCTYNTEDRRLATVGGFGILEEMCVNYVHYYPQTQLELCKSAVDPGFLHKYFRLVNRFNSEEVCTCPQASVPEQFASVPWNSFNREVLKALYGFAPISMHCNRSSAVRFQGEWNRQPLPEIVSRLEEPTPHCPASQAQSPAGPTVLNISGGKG

neural stem cells = conditions: ref Guan et al., 2009; cited from earlier work
[3] = isolated geniposide; ref Hou et al., 2008; Lu et al., 2011; cited from earlier work
[4] = IC50 value MAO-A, Table 1, 1 mM serotonin substrate
[5] = read-out: MAO-A inhibitory activity
[6] = read-out: MAO-B inhibitory activity
[7] = IC50 value DBH, Table 1, 120 mM tyramine substrate
[8] = read-out: DBH inhibitory activity

O=C(O)c1ccc(O)c(O)c1 [Compound 1, protocatechuic acid]
IC50 ([1]; IC50 MAO-A (abstract)): 2410 µM
IC50 [1, 4]: 2410 µM
inhibition at 50 µg/mL [1, 5]: 7.3 ± 2.6%
inhibition at 100 µg/mL [1, 5]: 12.8 ± 4.8%
inhibition at 500 µg/mL [1, 5]: 67.4 ± 5.2%
IC50 [2]: 300 µM
Specific activity on MAO-B relative to that on MAO-A ([2]; from Table 1): about 8 times
inhibition at 50 µg/mL [2, 6]: 50.4 ± 5.9%
inhibition at 100 µg/mL [2, 6]: 71.6 ± 9.3%
inhibition at 500 µg/mL [2, 6]: 108 ± 1.3%
IC50 (bovine adrenal DBH; [7]): 334 µM
inhibition at 50 µg/mL (bovine adrenal DBH; [8]): 49.2 ± 3.1%
inhibition at 100 µg/mL (bovine adrenal DBH; [8]): 64.1 ± 6.8%
inhibition at 500 µg/mL (bovine adrenal DBH; [8]): 97.2 ± 2%
Apoptosis of neural stem cells (neural stem cells): inhibit apoptosis
Proliferation of neural stem cells (neural stem cells): increase proliferation

C[C@H]1[C@H](C)CC[C@]2(C(=O)O)CC[C@]3(C)C(=CC[C@@H]4[C@@]5(C)CC[C@H](O)C(C)(C)[C@@H]5CC[C@]43C)[C@H]12 [Compound 5, ursolic acid]
MAO-A inhibition (in words) [1]: no inhibition
IC50 [1, 4]: > 11000 µM
IC50 [2]: 780 µM
inhibition at 50 µg/mL [2, 6]: 17.1 ± 1.1%
inhibition at 100 µg/mL [2, 6]: 28.7 ± 8%
IC50 (bovine adrenal DBH; IC50 DBH): 215 µM
IC50 (bovine adrenal DBH; [7]): 214 µM
inhibition at 2 µg/mL (bovine adrenal DBH; [8]): 18.2 ± 7.6%
inhibition at 10 µg/mL (bovine adrenal DBH; [8]): 20.8 ± 10.7%
inhibition at 50 µg/mL (bovine adrenal DBH; [8]): 33.2 ± 6.9%
inhibition at 100 µg/mL (bovine adrenal DBH; [8]): 51.2 ± 5.9%

COC(=O)C1=CO[C@@H](O[C@@H]2O[C@H](CO)[C@@H](O)[C@H](O)[C@H]2O)[C@@H]2C(CO)=CC[C@H]12 [Compound 2, geniposide]
IC50 [1, 4]: > 12900 µM
IC50 [2]: 223 µM
inhibition at 4 µg/mL [2, 6]: 9.2 ± 1.2%
inhibition at 20 µg/mL [2, 6]: 16 ± 0.6%
inhibition at 50 µg/mL [2, 6]: 42.8 ± 2.2%
inhibition at 100 µg/mL [2, 6]: 52.2 ± 1.5%
IC50 (bovine adrenal DBH; [7]): > 12900 µM
Absorption percentage [3]: very low
